The subject of series [1] is Cisplatin-induced renal injury and anemia rat model. Put plainly: Cisplatin-induced renal injury and anemia rat model. Type of series: in vivo, Male Sprague-Dawley (SD) rats. Here is the method:
Male Sprague-Dawley (SD) rats are allowed a one-week acclimation period, after which cisplatin (6 mg/kg) is administered through tail vein injection. A second injection is given one week later. Two weeks after the first administration, successful establishment of a renal disease model is confirmed by measuring serum creatinine and urea levels. The established rat model is randomly divided into four groups: a control group (n = 7), a cisplatin group (n = 6), a roxadustat group (n = 6), and a tafamidis group (n = 6). The roxadustat group and tafamidis group are orally administered the corresponding compound (roxadustat or tafamidis) at 10 mg/kg daily for four consecutive weeks. A corresponding solvent is administered to the control group and cisplatin group rat models based on the same dosing regimen. Urine samples are collected on the day following the final treatment, so as to measure UTP and UCREA. Hematological analysis is performed using a Mindray BC-5150 automated hematology analyzer, and urinalysis is performed using a Mindray BS-2000M automated biochemical analyzer, both using commercially available kits according to the manufacturers' instructions. After sample collection, the rats are euthanized. Statistical significance is determined by one-way analysis of variance (ANOVA), and then a Dunnett's test is performed for comparison with the cisplatin group (*P < 0.05, **P < 0.01, ***P < 0.001).
Left kidney samples collected from cisplatin-induced rats are fixed in 4% paraformaldehyde, dehydrated, embedded in paraffin, and sectioned. The tissue sections are 4 µm thick, and are subsequently subjected to histochemical staining such as hematoxylin-eosin (H&E), periodic acid-Schiff (PAS), and Masson's trichrome staining. After staining, the sections are scanned using advanced three-dimensional histological imaging technology, and high-resolution images are captured using a Pannoramic DESK/MIDI/250/1000 system. To evaluate renal tubular injury, 10 fields are randomly selected from each sample, and examined at a 40× magnification. The degree of renal tubular injury is assessed using a semi-quantitative scoring system (Paller score): 0 (no injury), 1 (<25% injury), 2 (25% to 50% injury), 3 (50% to 75% injury), and 4 (>75% injury). In addition, the entire tissue section is assessed at a 0.7× magnification to determine the extent of collagen fiber deposition shown by Masson's trichrome staining. Semi-quantitative analysis of the collagen fiber area is performed using Image-Pro Plus 6.0 software (Media Cybernetics, Rockville, MD, USA). For glomerular evaluation, 20 glomeruli are randomly selected from each rat and analyzed at a 63× magnification, using mesangial matrix expansion shown by PAS staining as an indicator. Semi-quantitative analysis of the mesangial matrix is likewise performed using Image-Pro Plus 6.0 software. Statistical significance is determined by one-way analysis of variance (ANOVA), and then a Dunnett's test is performed for comparison with the cisplatin group (*P < 0.05, **P < 0.01, ***P < 0.001).
Immunofluorescence staining is performed on 4 µm-thick kidney tissue sections. The sections are deparaffinized and rehydrated through ethanol, and then is subjected to microwave treatment in a 0.01 mol/L sodium citrate buffer (pH 6.0) for antigen retrieval. Subsequently, the sections are incubated overnight at 4 °C with a primary antibody against α-SMA (19245S, Cell Signaling Technology). After incubation, the sections is incubated at room temperature for 30 minutes with an HRP-conjugated secondary antibody (PK10009, Proteintech Group), and localization is performed using a DAB kit. After staining, the sections are scanned using advanced three-dimensional histological imaging technology, and high-resolution images are captured using a Pannoramic DESK/MIDI/250/1000 system. The entire tissue section is assessed at a 0.7× magnification to determine an α-SMA-positive region. […]

Series [2] deals with Unilateral ureteral obstruction (UUO)-induced mouse model. Nature of the series: Unilateral ureteral obstruction (UUO)-induced mouse model of renal injury and anemia. Type of series: in vivo, Male Balb/c mice. The following applies: for Pathological score for renal tubular injury: H&E staining, Paller score, UUO control group 4.56 ± 0.19; for Reduction in fibrosis: Masson's trichrome staining, interstitial fibrosis, UUO control group 26.0 ± 1.9%; for Urea level: serum after final treatment, UUO control group 6.26 ± 0.14. The text has this: Animal model establishment: Male Balb/c mice are anesthetized with isoflurane and then secured to an operating table with medical tape. After preparation of an abdominal midline incision site, the surgical part is disinfected with 75% ethanol-iodine tincture-ethanol. Subsequently, an incision is made along the linea alba of the mouse, and the incision is held open with a laparotomy retractor. The left ureter is isolated using a sterile cotton swab and curved forceps and ligated near the bladder dome using 3-0 suture. One drop of normal saline is added into the abdominal cavity, and then the abdomen is sutured. Following recovery on a heating pad, the mouse is returned to the cage, maintained under normal feeding and drinking conditions, and observed, thereby completing model establishment. For the sham-operated group, all procedures are the same as those of the model group except that no ligation is performed. For the treatment groups in the UUO model, male Balb/c mice, after a one-week acclimation period, are orally administered tafamidis (tafamidis treatment group) or roxadustat (roxadustat treatment group) by gavage for three consecutive days. The dose in the first tafamidis treatment group is 5 mg/kg/day, the dose in the second tafamidis treatment group is 10 mg/kg/day, and the dose in the roxadustat treatment group is 10 mg/kg/day. The drug administration is continued for seven days after unilateral ureteral obstruction surgery. A solvent is administered to the mice in the sham-operated group and the UUO control group based on the same dosing regimen. Serum analysis is performed after the final treatment. Serum analysis is performed using a Mindray BS-2000M automated […] analyzer with commercially available kits based on the manufacturer's instructions. After sample collection, the […] are euthanized. Statistical significance is determined by one-way analysis of variance (ANOVA), and then a Dunnett's test is performed for comparison with the UUO control group (*P < 0.05, **P < 0.01, ***P < 0.001).
Isolated left kidney samples from mice are fixed in 4% paraformaldehyde, dehydrated, embedded in paraffin, and sectioned. The tissue sections are 4 µm thick, and are subsequently subjected to histochemical staining such as H&E staining and Masson's trichrome staining. After staining, the sections are scanned using advanced three-dimensional histological imaging technology, and high-resolution images are captured using a Pannoramic DESK/MIDI/250/1000 system. H&E staining is analyzed to evaluate renal tubular injury. 10 fields are randomly selected from each sample, and examined at a 40× magnification. The degree of renal tubular injury is assessed using a semi-quantitative scoring system (Paller score): 0 (no injury), 1 (<25% injury), 2 (25% to 50% injury), 3 (50% to 75% injury), and 4 (>75% injury). In addition, the entire tissue section is assessed at a 0.7× magnification to determine the extent of collagen fiber deposition shown by Masson's trichrome staining. Semi-quantitative analysis of the collagen fiber area is performed using Image-Pro Plus 6.0 software. Statistical significance is determined by one-way analysis of variance (ANOVA), and then a Dunnett's test is performed for comparison with the UUO control group (*P < 0.05, **P < 0.01, ***P < 0.001).

The mark [3] stands for this setting: 10 mg/kg daily oral for four weeks, urine, versus cisplatin group.
[4] abbreviates: 10 mg/kg/day oral gavage, listed as Roxadustat.
[5] abbreviates: 10 mg/kg daily oral for four weeks, kidney tissue.
Setting [6] is: 10 mg/kg daily oral for four weeks, urine, versus cisplatin group, p < 0.05.

The structures appear in SMILES notation.

In the case of `Cc1nc(C(=O)NCC(=O)O)c(O)c2ccc(Oc3ccccc3)cc12` [roxadustat], the UTP levels result in series [1] (setting [3]) is on record as “increases”. In addition, in series [2] (10 mg/kg/day oral gavage), the “Pathological score for renal tubular injury” value (“Pathological score” for short) is listed as 4.78 ± 0.09, the Reduction in fibrosis is given as 21.8 ± 1.6% and the Urea level is listed as 5.36 ± 0.10 mmol/L. In series [2] (setting [4]), the “Pathological score” value is listed as 4.78 ± 0.09, P = 0.98; the Reduction in fibrosis was 21.8 ± 1.6%, P = 0.37; the Urea level is given as 5.36 ± 0.10, P < 0.001 mmol/L.
Turning to `O=C(O)c1ccc2nc(-c3cc(Cl)cc(Cl)c3)oc2c1` [tafamidis, 2-(3,5-dichlorophenyl)-1,3-benzoxazole-6-carboxylic acid], in series [1] (setting [5]), the “erythropoietin (EPO) protein levels, Western blot” value is on record as “increasing” and the “α-SMA protein expression, Western blot” value is “significantly reduces”. The “cisplatin-induced renal injury, semi-quantitative scoring (H&E, Masson's trichrome, PAS)” value in series [1] (10 mg/kg daily oral for four weeks, left kidney sections) was “significantly alleviates”. In series [1] (setting [3]), the UTP levels result is reported as “little effect”. For the same compound, in series [1] (setting [6]), the UCREA levels entry was “increases” and the UTP/UCREA ratio result is recorded as “reducing”. Also, the “Gross observation of kidney tissues (color)” value in series [1] (10 mg/kg daily oral for four weeks, normal control healthy red, cisplatin group white discoloration and edema) was “normal red color”. Besides, the “Red blood cells (RBCs)” value in series [1] (10 mg/kg daily oral, week 4, cisplatin group 6.3 ± 0.3 ×10^12, p < 0.001) is 8.1 ± 0.4 × 10^12 cells/L. Moreover, the “Hematocrit (HCT)” value in series [1] (10 mg/kg daily oral, week 4, cisplatin group 46.2 ± 1.8%, p < 0.001) was determined as 58.4 ± 2.9%. Moreover, the “Hemoglobin (HGB)” value in series [1] (10 mg/kg daily oral, week 4, cisplatin group 127.7 ± 4.7, p < 0.05) is 161.8 ± 9.3 g/L. In series [2] (5 mg/kg/day oral gavage), the “Gross observation: pallor of the obstructed kidney” value was “significantly alleviates”; the “Pathological score” value was 2.85 ± 0.83, P < 0.05; the Urea level is listed as 5.67 ± 0.23, P = 0.10 mmol/L. For the same compound, in series [2] (10 mg/kg/day oral gavage), the “Pathological score” value is on record as 2.93 ± 0.35, P < 0.05 and the Urea level is 5.28 ± 0.29, P < 0.05 mmol/L.

Values taken from EP4813383A1, “USE OF TAFAMIDIS AND PHARMACEUTICALLY ACCEPTABLE SALT THEREOF IN PREVENTION, ALLEVIATION, OR TREATMENT OF DISEASES ASSOCIATED WITH HIF-2a” (Huaya Jiyuan (Shenzhen) Pharmaceutical Co., Ltd., priority 2024, dated 2025).
